According to patent US8426447B2, “Spiro-tricyclic ring compounds as beta-secretase modulators and methods of use” (Amgen Inc., priority 2008, dated 2013):

What was measured:
BACE1 [1] = target: T1, BACE1 (Homo sapiens, UniProt P56817); test: In Vitro BACE Cell-based Assay (HEK cell assay): Aβ40 in conditioned medium of cells stably expressing Amyloid Precursor Protein, sandwich ELISA
Description: In Vitro BACE Cell-based Assay
The cell-based assay measures inhibition or reduction of Aβ40 in conditioned medium of test compound treated cells expressing amyloid precursor protein.
Cells stably expressing Amyloid Precursor Protein (APP) were plated at a density of 40K cells/well in 96 well plates (Costar). The cells were cultivated for 24 hours at 37° C. and 5% CO2 in DMEM supplemented with 10% FBS. The test compounds were then added to cells in 10-point dose response concentrations with the starting concentration being either 100 μM or 10 μM. The compounds were diluted from stock solutions in DMSO and the final DMSO concentration of the test compounds on cells was 0.1%. After 24 h of incubation with the test compounds the supernatant conditioned media was collected and the Aβ 40 levels were determined using a sandwich ELISA. The IC50 of the compound was calculated from the percent of control or percent inhibition of Aβ 40 as a function of the concentration of the test compound.
The sandwich ELISA to detect Aβ 40 was performed in 96 well microtiter plates, which were pre-treated with goat anti-rabbit IgG (Pierce). The capture and detecting antibody pair that were used to detect Aβ 40 from cell supernatants were affinity purified pAb40 (Biosource) and biotinylated 6E10 (Signet Labs Inc.), respectively. The optimal concentration for the pAb40 antibody was 3 μg/ml in Superblock/TBS (Pierce) that was supplemented with 0.05% Tween 20 (Sigma).
Cellular supernatants were incubated with the capture antibody for 3 h at 4° C., followed by 3 wash steps in TBS-tween (0.05%). The detecting antibody incubation was for 2 h at 4° C., again followed by the wash steps as described previously. The final readout of the ELISA is Time-Resolved Fluorescence (counts per minute) using Delfia reagents Streptavidin-Europium and Enhancement solutions (Perkin Elmer) and the Victor 2 multilabel counter (Perkin Elmer).

BACE1 [2] = target: T1, BACE1; test: In Vitro Enzymatic BACE FRET (Fluorescence Resonance Energy Transfer) Assay; format: biochemical
Description: In Vitro Enzymatic BACE FRET (Fluorescence Resonance Energy Transfer) Assay (Enzyme Assay Data in the Example Tables I, II, III & IV) The assay buffer used in this screen is 0.05 M acetate, pH 4.2, 10% DMSO final, 100 uM genapol (which is a nonionic detergent, below its Critical Micelle Concentration). […] This assay is effectively started by the addition of FRET substrate (50 nM) and the combination is incubated for one hour. The FRET assay is terminated with by addition of Tris buffer, which raises the pH to neutrality, and the fluorescence is determined. The FRET substrate is a peptide with commercially available fluorophore and quencher, on opposite sides of the BACE cleavage site. […]

[3] = Table III, IC50's in uM ranges, read-out: HEK cell assay
[4] = Table III, IC50's in uM ranges, read-out: BACE1 FRET assay
[5] = Table IV, class symbols, read-out: HEK cell assay
[6] = Table IV, class symbols, read-out: BACE1 FRET assay
[7] = HEK cell-based assay, Aβ40 in conditioned medium, IC50 class symbols, read-out: HEK cell assay
[8] = in vitro BACE FRET enzyme assay, IC50 class symbols, read-out: BACE1 FRET assay
[9] = Table 1, Aβ40, 24 h incubation, read-out: HEK cell assay
[10] = Table 1, read-out: BACE1 FRET assay
[11] = HEK cells, read-out: HEK cell assay

T1 sequence (P56817 46-501, species assumed): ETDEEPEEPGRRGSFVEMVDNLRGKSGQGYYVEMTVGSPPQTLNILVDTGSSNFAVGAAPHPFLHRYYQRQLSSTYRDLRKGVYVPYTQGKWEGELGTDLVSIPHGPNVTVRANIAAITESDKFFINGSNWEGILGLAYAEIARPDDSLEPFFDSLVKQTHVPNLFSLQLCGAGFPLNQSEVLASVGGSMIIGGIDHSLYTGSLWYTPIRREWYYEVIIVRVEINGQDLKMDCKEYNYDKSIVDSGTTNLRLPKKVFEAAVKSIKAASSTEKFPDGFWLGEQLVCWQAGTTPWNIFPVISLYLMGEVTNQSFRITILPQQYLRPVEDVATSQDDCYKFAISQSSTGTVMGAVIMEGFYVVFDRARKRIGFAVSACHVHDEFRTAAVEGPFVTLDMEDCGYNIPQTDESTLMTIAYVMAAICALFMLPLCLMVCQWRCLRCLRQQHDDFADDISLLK

CN(C)c1ncc(-c2ccc3c(c2)[C@]2(COC(N)=N2)c2cc(OCC(C)(C)C)ccc2O3)cn1 [compound 780]
IC50 (BACE1 [1]; read-out: HEK cell assay): 1 to 5 µM | IC50 (BACE1 [2]; read-out: BACE1 FRET assay): 0.1 to 1 µM

C[C@@H]1OC(N)=N[C@]12c1cc(OCC(C)(C)C)ccc1Oc1ccc(-c3cncnc3)cc12 [126a, (4R,5S)-2′-(2,2-dimethylpropoxy)-5-methyl-7′-(5-pyrimidinyl)spiro[1,3-oxazole-4,9′-xanthen]-2-amine]
IC50 (BACE1 [1]; [3]): 1 to 5 µM | IC50 (BACE1 [2]; [4]): 0.1 to 1 µM

NC1=N[C@@]2(CO1)c1cc(-c3cccnc3)ccc1Oc1ccc(N3CCCC3=O)cc12 [compound 863]
IC50 (BACE1 [1]; [5]): 0.1 to 1 µM | IC50 (BACE1 [2]; [6]): < 0.1 µM

NC1=N[C@]2(CO1)c1cc(C3=CCOCC3)ccc1Oc1ccc(-c3cccnc3)cc12 [compound 715]
IC50 (BACE1 [1]; read-out: HEK cell assay): < 0.1 µM | IC50 (BACE1 [2]; read-out: BACE1 FRET assay): < 0.1 µM

NC1=N[C@@]2(CO1)c1cc(-c3cc(Cl)ccc3F)ccc1Oc1cnc(-c3cccnc3)cc12 [compound 367]
IC50 (BACE1 [1]; [7]): < 0.1 µM | IC50 (BACE1 [2]; [8]): < 0.1 µM

CC(C)(C)COc1ccc2c(c1)[C@]1(COC(N)=N1)c1cc(-c3cncnc3)cc(F)c1O2 [155b]
IC50 (BACE1 [1]; [3]): 0.1 to 1 µM | IC50 (BACE1 [2]; [4]): < 0.1 µM

Cc1ccc2c(c1)Oc1ccc(Br)cc1C21COC(N)=N1 (stereo not drawn) [Example 37, 2′-bromo-6′-methylspiro[1,3-oxazole-4,9′-xanthen]-2-amine]
IC50 (BACE1 [1]; [9]): > 5 µM | IC50 (BACE1 [2]; [10]): > 5 µM

CC(C)(C)/C=C/c1cc2c(cn1)Oc1ccc(-c3cccnc3)cc1[C@@]21COC(N)=N1 [compound 397]
IC50 (BACE1 [1]; [7]): < 0.1 µM | IC50 (BACE1 [2]; [8]): < 0.1 µM

CC(C)OCCOc1ccc2c(c1)[C@]1(COC(N)=N1)c1cc(-c3cccnc3)ccc1O2 [compound 181]
IC50 (BACE1 [1]; [3]): 0.1 to 1 µM | IC50 (BACE1 [2]; [4]): < 0.1 µM

NC1=N[C@]2(CO1)c1cc(-c3cncnc3)ccc1Oc1c(F)cc(C3=CCOCC3)cc12 [compound 637]
IC50 (BACE1 [1]; [5]): 0.1 to 1 µM | IC50 (BACE1 [2]; [6]): 1 to 5 µM

NC1=N[C@@]2(CO1)c1cc(-c3cncnc3)ccc1Oc1ncc(C3=CCOCC3)cc12 [compound 805]
IC50 (BACE1 [1]; [5]): < 0.1 µM | IC50 (BACE1 [2]; [6]): < 0.1 µM

NC1=N[C@@]2(CO1)c1cc(-c3cccnc3)ccc1Oc1ccc(N3C[C@@H]4C[C@H]3CO4)cc12 [compound 564]
IC50 (BACE1 [1]; [5]): < 0.1 µM | IC50 (BACE1 [2]; [6]): < 0.1 µM

CC(C)(C)COc1cc2c(cc1F)[C@]1(COC(N)=N1)c1cc(-c3cncnc3)ccc1O2 [compound 999]
IC50 (BACE1 [1]; read-out: HEK cell assay): > 5 µM | IC50 (BACE1 [2]; read-out: BACE1 FRET assay): 1 to 5 µM

Cc1nc(C)c(-c2ccc3c(c2)[C@@]2(COC(N)=N2)c2cc(OCC(C)(C)C)ccc2O3)s1 [compound 837]
IC50 (BACE1 [1]; [5]): > 5 µM | IC50 (BACE1 [2]; [6]): 0.1 to 1 µM

COc1ccc2c(c1)C1(COC(N)=N1)c1cc(-c3ccccc3Cl)ccc1O2 (stereo not drawn) [Example 28, 2′-(2-chlorophenyl)-7′-methoxyspiro[1,3-oxazole-4,9′-xanthen]-2-amine]
IC50 (BACE1 [1]; [9]): 1 to 5 µM | IC50 (BACE1 [2]; [10]): > 5 µM

NC1=N[C@]2(CO1)c1cc(-c3cccnc3)ccc1Oc1cnc(Cl)cc12 [compound 953]
IC50 (BACE1 [1]; read-out: HEK cell assay): 1 to 5 µM | IC50 (BACE1 [2]; read-out: BACE1 FRET assay): 0.1 to 1 µM

Cc1noc(C)c1-c1ccc2c(c1)[C@@]1(COC(N)=N1)c1cc(OCC(C)(C)C)ccc1O2 [compound 976]
IC50 (BACE1 [1]; read-out: HEK cell assay): > 5 µM | IC50 (BACE1 [2]; read-out: BACE1 FRET assay): 0.1 to 1 µM

CC(C)(C)COc1ccc2c(c1)[C@@]1(COC(N)=N1)c1cc(-c3cccnc3F)cnc1O2 [compound 870]
IC50 (BACE1 [1]; [5]): < 0.1 µM | IC50 (BACE1 [2]; [6]): < 0.1 µM

COC(C)(C)COc1ccc2c(c1)[C@]1(COC(N)=N1)c1cc(-c3cccnc3)ccc1O2 [compound 149]
IC50 (BACE1 [1]; [3]): < 0.1 µM | IC50 (BACE1 [2]; [4]): < 0.1 µM

CC(C)(C)COc1ccc2c(c1)[C@]1(COC(N)=N1)c1cc(-c3cccs3)ccc1O2 [compound 834]
IC50 (BACE1 [1]; [5]): 1 to 5 µM | IC50 (BACE1 [2]; [6]): < 0.1 µM

Cn1cc(-c2cc3c(cn2)Oc2ccc(-c4cccnc4F)cc2[C@@]32COC(N)=N2)cn1 [compound 333]
IC50 (BACE1 [1]; [7]): < 0.1 µM | IC50 (BACE1 [2]; [8]): < 0.1 µM

CC1(C)CC(c2cc3c(cn2)Oc2ccc(-c4cccnc4F)cc2[C@@]32COC(N)=N2)=CCO1 [compound 434]
IC50 (BACE1 [1]; HEK cell assay (uM), HEK cells): < 0.1 µM | IC50 (BACE1 [2]; BACE1 FRET assay (uM)): < 0.1 µM

NC1=N[C@]2(CO1)c1cc(C(=O)CC3CCCCC3)ccc1Oc1ccc(-c3cncnc3)cc12 [compound 141]
IC50 (BACE1 [1]; [3]): 0.1 to 1 µM | IC50 (BACE1 [2]; [4]): < 0.1 µM

CC(C)(C)CCc1cc2c(cn1)Oc1ccc(-c3cncnc3)cc1[C@@]21COC(N)=N1 [compound 455]
IC50 (BACE1 [1]; [11]): < 0.1 µM | IC50 (BACE1 [2]; read-out: BACE1 FRET assay): < 0.1 µM

CCc1cc2c3c(ccc2o1)Oc1ncc(-c2cncnc2)cc1[C@]31COC(N)=N1 [compound 769]
IC50 (BACE1 [1]; read-out: HEK cell assay): 1 to 5 µM | IC50 (BACE1 [2]; read-out: BACE1 FRET assay): 0.1 to 1 µM

COC(C)(C)C#Cc1cc(F)c2c(c1)[C@@]1(COC(N)=N1)c1cc(-c3ccc(F)nc3)ccc1O2 [compound 645]
IC50 (BACE1 [1]; [5]): 1 to 5 µM | IC50 (BACE1 [2]; [6]): 0.1 to 1 µM

CC(C)(C)OC(=O)/C=C/c1ccc2c(c1)[C@]1(COC(N)=N1)c1cc(-c3cccnc3)ccc1O2 [compound 995]
IC50 (BACE1 [1]; read-out: HEK cell assay): 1 to 5 µM | IC50 (BACE1 [2]; read-out: BACE1 FRET assay): 0.1 to 1 µM

NC1=N[C@@]2(CO1)c1cc(C(=O)NC3CC3)ccc1Oc1ccc(-c3ccccc3)cc12 [compound 518]
IC50 (BACE1 [1]; [11]): < 0.1 µM | IC50 (BACE1 [2]; read-out: BACE1 FRET assay): < 0.1 µM

NC1=N[C@@]2(CO1)c1cc(-c3ccc4nccn4c3)ccc1Oc1ncccc12 [compound 572]
IC50 (BACE1 [1]; [5]): 1 to 5 µM | IC50 (BACE1 [2]; [6]): > 5 µM

Cc1ccccc1-c1ccc2c(c1)[C@]1(COC(N)=N1)c1cccnc1O2 [compound 609]
IC50 (BACE1 [1]; [5]): > 5 µM | IC50 (BACE1 [2]; [6]): > 5 µM

CC(C)(C)COc1ccc2c(c1)[C@]1(COC(N)=N1)c1cc(-c3ccc(C#N)nc3)ccc1O2 [compound 882]
IC50 (BACE1 [1]; [5]): 1 to 5 µM | IC50 (BACE1 [2]; [6]): < 0.1 µM

CN(C)CCOc1ccc2c(c1)[C@]1(COC(N)=N1)c1cc(-c3cccnc3)ccc1O2 [compound 886]
IC50 (BACE1 [1]; [5]): < 0.1 µM | IC50 (BACE1 [2]; [6]): 0.1 to 1 µM

NC1=N[C@@]2(CO1)c1cc(-c3cncc(F)c3)ccc1Oc1cnc(C3=CCOCC3)cc12 [compound 368, (5S)-3-(3,6-dihydro-2H-pyran-4-yl)-7-(5-fluoro-3-pyridinyl)spiro[chromeno[2,3-c]pyridine-5,4′-[1,3]oxazol]-2′-amine]
IC50 (BACE1 [1]; [7]): < 0.1 µM | IC50 (BACE1 [2]; [8]): < 0.1 µM

Cc1nc(-c2ccc3c(c2)[C@]2(COC(N)=N2)c2cc(-c4cccnc4)ccc2O3)cs1 [compound 679]
IC50 (BACE1 [1]; read-out: HEK cell assay): < 0.1 µM | IC50 (BACE1 [2]; read-out: BACE1 FRET assay): < 0.1 µM

NC1=N[C@]2(CO1)c1cc(OCC3CCOCC3)ccc1Oc1ccc(-c3cncnc3)cc12 [compound 175]
IC50 (BACE1 [1]; [3]): < 0.1 µM | IC50 (BACE1 [2]; [4]): < 0.1 µM

NC1=N[C@]2(CO1)c1cc(-c3cncnc3)ccc1Oc1cccnc12 [compound 527]
IC50 (BACE1 [1]; [11]): 0.1 to 1 µM | IC50 (BACE1 [2]; read-out: BACE1 FRET assay): 0.1 to 1 µM

Cc1cncc(-c2ccc3c(c2)[C@@]2(COC(N)=N2)c2cc(N4CCOCC4)ncc2O3)c1 [compound 325]
IC50 (BACE1 [1]; [7]): < 0.1 µM | IC50 (BACE1 [2]; [8]): < 0.1 µM

NC1=N[C@@]2(CO1)c1cc(-c3cncnc3)ccc1Oc1c(F)cccc12 [compound 553]
IC50 (BACE1 [1]; [5]): 0.1 to 1 µM | IC50 (BACE1 [2]; [6]): < 0.1 µM

CC(C)(C)COc1ccc2c(c1)C1(COC(N)=N1)c1cc(Br)ccc1O2 (stereo not drawn) [Example 57, 2′-bromo-7′-(2,2-dimethylpropoxy)spiro[1,3-oxazole-4,9′-xanthen]-2-amine]
IC50 (BACE1 [1]; Table II, Aβ40, 24 h incubation, read-out: HEK cell assay): 1 to 5 µM | IC50 (BACE1 [2]; Table II, read-out: BACE1 FRET assay): 0.1 to 1 µM
